Two molecules from patent US8207146B2, “Phenothiazine derivative having a double bond, method for the production thereof, and use thereof as a pharmaceutical” (Sanofi-Aventis, priority 2007, dated 2012) can be followed below.

The data set deals with T1, Human glucokinase (Homo sapiens, UniProt P35557).
T1 sequence (P35557 6-464 isoform P35557-3 limits assumed): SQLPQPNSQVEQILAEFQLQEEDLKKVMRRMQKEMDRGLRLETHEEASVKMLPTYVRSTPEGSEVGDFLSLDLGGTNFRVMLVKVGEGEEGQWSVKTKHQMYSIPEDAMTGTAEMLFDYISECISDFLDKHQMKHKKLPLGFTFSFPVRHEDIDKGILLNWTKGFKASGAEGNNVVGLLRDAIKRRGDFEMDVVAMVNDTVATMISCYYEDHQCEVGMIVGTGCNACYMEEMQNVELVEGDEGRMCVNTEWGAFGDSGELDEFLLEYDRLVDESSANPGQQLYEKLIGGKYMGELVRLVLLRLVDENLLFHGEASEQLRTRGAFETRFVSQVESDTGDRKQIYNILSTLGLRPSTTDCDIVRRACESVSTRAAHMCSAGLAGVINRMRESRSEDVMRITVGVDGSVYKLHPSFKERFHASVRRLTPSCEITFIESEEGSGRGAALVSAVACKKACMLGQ
The settings on record: 5 mM glucose; for EC150: concentration of test compound which increases the enzymatic activity by 50%, 1 mM ATP, 25° C., pH 7; for Fold induction: maximum fold stimulation: highest change in extinction in the range 0.1-100 μM relative to change without test substance.

In the case of `COc1ccc2nc(NC(=O)/C(=C/C3CCC(=O)CC3)c3ccc4c(c3)Nc3ccccc3S4(=O)=O)sc2n1` [Example 4, (E)-2-(5,5-dioxo-5,10-dihydrophenothiazin-2-yl)-N-(5-methoxythiazolo[5,4-b]pyridin-2-yl)-3-(4-oxocyclohexyl)acrylamide], the EC150 came out at 0.2 µM and the Fold induction was 4.8.
Take `CN1c2ccccc2S(=O)(=O)c2ccc(/C(=C\C3CCCC3)C(=O)Nc3ccn(C)n3)cc21` [Example 1, (E)-3-cyclopentyl-2-(10-methyl-5,5-dioxo-5,10-dihydrophenothiazin-2-yl)-N-(1-methyl-1H-pyrazol-3-yl)acrylamide]: the EC150 was 1.70 µM and the Fold induction was found to be 3.2.
